Counter-ions that a name gives are not always drawn.
Key:
[1] = tested on: extracellular dopamine (DA) in the frontal cortex; assay: Dual-probe microdialysis, dopamine in frontal cortex of freely-moving rats; type: in vivo, rat
Procedure: (§1) A dual-probe microdialysis study was conducted to determine the effects of oral administration of cariprazine hydrochloride, alone and in combination with escitalopram oxalate (administered subcutaneously), on extracellular concentrations of acetylcholine (ACh), dopamine (DA) and serotonin (5-HT) in the frontal cortex of freely-moving rats.
(§2) Experiments were carried out in male Sprague Dawley rats (250-350 g body weight; Charles River, UK). Animals were housed in groups of six on a 12 h/12 h light/dark cycle (lights on at 07.30 h), at an ambient temperature of 21±2° C. and 55±20% humidity. Food and water were available ad libitum. Animals were allowed to acclimatise to these conditions for at least 5 days prior to the study.
Rats were anaesthetised with isoflurane (5% to induce, 2% to maintain) in an O2/N2O (1 litre/min each) mixture delivered via an anaesthetic unit (St Bernard Medical Services, UK). […] Samples were measured from the same side in each rat (e.g. left probe was used to measure ACh and right probe was used to measure DA and 5-HT). […]

[2] = tested on: extracellular acetylcholine (ACh) in the frontal cortex; assay: Dual-probe microdialysis, acetylcholine in frontal cortex of freely-moving rats; type: in vivo, rat; conditions: for change in basal ACh levels compared to vehicle+saline-treated controls: escitalopram oxalate 1.0 mg/kg sc
Procedure: as §1, §2
Rats were anaesthetised with isoflurane (5% to induce, 2% to maintain) in an O2/N2O (1 litre/min each) mixture delivered via an anaesthetic unit (St Bernard Medical Services, UK). Concentric microdialysis probes with 2 mm exposed polyarylethersulphone (PAES) membrane tip (CMA) were stereotaxically implanted bilaterally into the prefrontal cortex (coordinates: AP: +3.2 mm; L: +/−2.5 mm relative to bregma; V: −4.0 mm relative to the skull surface; taken from the stereotaxic atlas of Paxinos and Watson (Paxinos G, Watson C., The Rat Brain in Stereotaxic Coordinates, 2nd Edition, London: Academic Press, 1986). The upper incisor bar was set at 3.3 mm below the interaural line so that the skull surface between bregma and lambda was horizontal. The coordinates for each probe were identical from bregma except for the lateral measurement as one probe was placed to the left of the midline and the other to the right. Samples were measured from the same side in each rat (e.g. left probe was used to measure ACh and right probe was used to measure DA and 5-HT). Additional burr holes were made for skull screws (stainless steel) and the probes were secured using dental cement. […]

[3] = tested on: basal locomotor activity of mice; assay: Open field, basal locomotor activity of mice (Example 4A); type: in vivo, mouse; conditions: for Total Distance Traveled [mean ± SEM]: test condition water, 60 min pretreatment
Procedure: (§3) Cariprazine hydrochloride and escitalopram oxalate were evaluated for anti-manic effects using the amphetamine/chlordiazepoxide (AMPH/CDP) hyperactivity test.
(§4) Male C57B1/6J mice from Jackson Laboratories (Bar Harbor, Me.) were used in this study. Mice were received at 6-weeks of age. Upon receipt, mice were assigned unique identification numbers (tail marked) and were group housed with 4 mice/cage. All animals remained housed in groups of four during the remainder of the study. All mice were acclimated to the colony room for at least two weeks prior to testing and were subsequently tested at an average age of 8 weeks of age. During the period of acclimation, mice were examined on a regular basis, handled, and weighed to assure adequate health and suitability. Mice were maintained on a 12/12 light/dark cycle. The room temperature was maintained between 20 and 23° C. with a relative humidity maintained between 30% and 70%. Chow and water were provided ad libitum for the duration of the study. In each test, animals were randomly assigned across treatment groups.
(§5) Distance traveled is measured by consecutive beam breaks.
(§6) Data was analyzed by analysis of variance (ANOVA) followed by Fisher PLSD post-hoc analysis when appropriate. An effect was considered significant if p<0.05. Outliers that fell above and below two standard deviations from the mean were removed from the final analysis.

[4] = tested on: d-amphetamine/chlordiazepoxide mixture (AMPH/CDP)-induced hyperactivity in mice; assay: d-Amphetamine/chlordiazepoxide (AMPH/CDP) hyperactivity test (Example 4A); type: in vivo, mouse; conditions: for Total Distance Traveled [mean ± SEM]: test condition AMPH/CDP, 60 min pretreatment
Procedure: as §3, §4
(§7) d-Amphetamine sulfate (Sigma, 4.0 mg/kg) and chlordiazepoxide (CDP; Sigma, 2.5 mg/kg) were dissolved in sterile water and were administered intraperitoneally at a dose volume of 10 ml/kg.
as §5, §6

[5] = tested on: basal locomotor activity of mice; assay: Open field, basal locomotor activity of mice (Example 4B); type: in vivo, mouse; conditions: test condition water
Procedure: as §3
(§8) Male C57B1/6J mice (8 weeks old) from Jackson Laboratories (Bar Harbor, Me.) were used in this study. Upon receipt, mice were assigned unique identification numbers (tail marked) and were group housed (4 mice/cage) in OPTI mouse ventilated cages. All animals remained housed in groups of four during the remainder of the study. During the period of acclimation, mice were examined on a regular basis, handled, and weighed to assure adequate health and suitability. Mice were maintained on a 12/12 light/dark cycle. The room temperature was maintained between 20 and 23° C. with a relative humidity maintained between 30% and 70%. Chow and water were provided ad libitum for the duration of the study. In each test, animals were randomly assigned across treatment groups.
as §5, §6

[6] = tested on: d-amphetamine/chlordiazepoxide mixture (AMPH/CDP)-induced hyperactivity in mice; assay: d-Amphetamine/chlordiazepoxide (AMPH/CDP) hyperactivity test (Example 4B); type: in vivo, mouse; conditions: for Total Distance Traveled [mean ± SEM]: test condition AMPH/CDP
Procedure: as §3, §8, §7, §5, §6

[7] = cariprazine hydrochloride alone 0.03, 0.1 and 0.3 mg/kg po
[8] = cariprazine hydrochloride 0.10 mg/kg oral
[9] = cariprazine HCl 0.03 mg/kg oral
[10] = cariprazine HCl 0.10 mg/kg oral
[11] = escitalopram oxalate 0.10 mg/kg oral
[12] = escitalopram oxalate 0.50 mg/kg oral

CN(C)C(=O)N[C@H]1CC[C@H](CCN2CCN(c3cccc(Cl)c3Cl)CC2)CC1 [Cariprazine hydrochloride, trans-4-{2-[4-(2,3-dichlorophenyl)-piperazin-1-yl]-ethyl}-N,N-dimethylcarbamoyl-cyclohexylamine hydrochloride]
efflux of DA in the frontal cortex [1, 7]: no significant effect | efflux of ACh in the frontal cortex [2, 7]: no significant effect | effect on basal locomotor activity compared to water [3, 8]: trend toward a significant decrease | effect on basal activity compared to water ([3]; cariprazine hydrochloride 0.30 mg/kg oral): significantly decreased | Total Distance Traveled [mean ± SEM] ([3]; 0.03 mg/kg oral): 4056 ± 427 cm/60 min | Total Distance Traveled [mean ± SEM] ([3]; 0.10 mg/kg oral): 1726 ± 112 cm/60 min | Total Distance Traveled [mean ± SEM] ([3]; 0.30 mg/kg oral): 917 ± 73 cm/60 min | effect on mixture-induced hyperactivity ([4]; cariprazine hydrochloride 0.10 and 0.30 mg/kg oral): significantly decreased | Total Distance Traveled [mean ± SEM] ([4]; 0.03 mg/kg oral): 32122 ± 2942 cm/60 min | Total Distance Traveled [mean ± SEM] ([4]; 0.10 mg/kg oral): 13688 ± 2349 cm/60 min | Total Distance Traveled [mean ± SEM] ([4]; 0.30 mg/kg oral): 2525 ± 204 cm/60 min | Total Distance Traveled [mean ± SEM] [5, 9]: 4013 ± 343 cm/60 min | Total Distance Traveled [mean ± SEM] [5, 10]: 2697 ± 259 cm/60 min | effect on enhanced locomotor activity produced by the CDP+amphetamine mixture [6, 8]: significantly attenuated | Total Distance Traveled [mean ± SEM] [6, 9]: 32628 ± 2510 cm/60 min | Total Distance Traveled [mean ± SEM] [6, 10]: 22594 ± 2838 cm/60 min

CN(C)CCC[C@@]1(c2ccc(F)cc2)OCc2cc(C#N)ccc21 [Escitalopram oxalate, 1-[3-(dimethyl-amino)propyl]-1-(p-fluorophenyl)-5-phthalancarbonitrile]
basal DA levels ([1]; escitalopram oxalate 1.0 mg/kg sc): no effect | change in basal ACh levels compared to vehicle+saline-treated controls ([2]; 100 min post-administration): −55% | change in basal ACh levels compared to vehicle+saline-treated controls ([2]; 240 min post-administration): −56% | Total Distance Traveled [mean ± SEM] ([3]; 0.50 mg/kg oral): 4435 ± 389 cm/60 min | Total Distance Traveled [mean ± SEM] ([3]; 5.0 mg/kg oral): 6499 ± 445 cm/60 min | effect on mixture-induced hyperactivity ([4]; escitalopram oxalate 0.5 mg/kg oral): trend toward a significant decrease | effect on mixture-induced hyperactivity ([4]; escitalopram oxalate 5.0 mg/kg oral): increased | Total Distance Traveled [mean ± SEM] ([4]; 0.50 mg/kg oral): 30067 ± 1901 cm/60 min | Total Distance Traveled [mean ± SEM] ([4]; 2.0 mg/kg oral): 36112 ± 1934 cm/60 min | Total Distance Traveled [mean ± SEM] ([4]; 5.0 mg/kg oral): 39639 ± 1582 cm/60 min | Total Distance Traveled [mean ± SEM] [5, 11]: 5551 ± 382 cm/60 min | Total Distance Traveled [mean ± SEM] [5, 12]: 5238 ± 242 cm/60 min | effect on mixture-induced locomotor activity ([6]; escitalopram oxalate alone, either dose tested (0.10 and 0.50 mg/kg oral)): no significant effect | Total Distance Traveled [mean ± SEM] [6, 11]: 39700 ± 3477 cm/60 min | Total Distance Traveled [mean ± SEM] [6, 12]: 40881 ± 3123 cm/60 min
